From article PMC6151435, “Bioactivity In Vitro of Quercetin Glycoside Obtained in Beauveria bassiana Culture and Its Interaction with Liposome Membranes” (Molecules : A Journal of Synthetic Chemistry and Natural …, 2017)
Converted amounts (≈) assume the structure as drawn.

Key:
[1] = 1H-NMR study of interaction with DPPC liposomes (PrCl3 shift reagent); settings: 0.24 mM compound
Experimental: The ^1H-NMR method of investigating the Q 7-MeGlu and Q interaction with liposomes was described earlier by Gabrielska et al. with minor modifications. Mixtures of phospholipids (DPPC) with studied compounds were co-dissolved in a chloroform/methanol mixture (55:1 v/v) at the respective concentrations. The lipid concentration in the sample was 36 mM and that of Q 7-MeGlu and Q was 0.24 mM […]. The samples were first evaporated under a stream of nitrogen and then in a vacuum (overnight). Then the samples were hydrated with D2O and vigorously shaken (15 min) at temperature above the main phase transition of lipid (41 °C) until optical homogeneity of the mixture was reached. Next, the lipid suspension was sonicated with a 20 kHz sonicator (20 kHz, Sonic, Italy) to yield a homogeneous lipid dispersion. Briefly, before the measurements a 4 mM praseodymium trichloride (PrCl3 × 6H2O) in heavy water solution […] was added to the sample of 0.6 mL liposome suspension. ^1H-NMR parameters were as follows: spectral window 12.019 Hz, digital resolution 0.183 Hz, acquisition and delay times 2.73 s and 1.00 s, respectively, and acquisition temperature 325 K. The experiment was performed in two replicates.

[2] = Solubility in water (literature values); assay type: physicochemical; settings: from cited values
[3] = ref [12]; cited from earlier work

SMILES	decrease (Δδ) in the splitting parameter of polar head groups resonance [1]	decrease of the Iout/Iin ratio vs pure DPPC [1]	increase in the half width of the membrane surface signal vs pure DPPC [1]	solubility, fold lower than rutin [2]	solubility in water [3]	decrease in full width at half height (ν) of band of terminal methyl group [1]	increase of the Iout/Iin ratio vs pure DPPC [1]
CO[C@H]1[C@H](O)[C@@H](O)[C@H](Oc2cc(O)c3c(=O)c(O)c(-c4ccc(O)c(O)c4)oc3c2)O[C@@H]1CO [Q 7-MeGlu, quercetin 7-O-β-D-(4″-O-methyl)glucopyranoside]	56%	13%	~142%	–	–	–	–
O=c1c(O)c(-c2ccc(O)c(O)c2)oc2cc(O)cc(O)c12 [Quercetin, 3,3′,4′,5,7-pentahydroxyflavone]	32%	–	approximately 119%	more than 240 fold	0.512 µg/mL (≈ 1.69 µM)	4%	33%
